According to patent publication US20070264198A1, “TUMOR NECROSIS AGENT” (Ajinomoto Co., Inc., priority 2001, published 2007):
Counter-ions that a name gives are not always drawn.

Tests used:
[1] = tested on: Sato lung carcinoma (SLC); assay: Anti-tumor effect against tumor grown in the transparent chamber; assay type: in vivo, rat; settings: 10 mg/kg, tail vein, Donryu rats; state maintained for 48 hours after treatment
Procedure: (§1) Donryu rats (Crj-Donryu; supplied by Charles River Japan, Inc.), male.
(§2) Rat lung carcinoma, Sato lung carcinoma (SLC)
(§3) MTPVS powder was dissolved in physiological saline to a final concentration of 10 mg/ml. The solution (10 mg/kg) was administered through the tail vein of rats. Pentobarbital salt (Nembutal; manufactured by Abbott Laboratories) and enflurane (Ethrane; manufactured by Abbott Laboratories) was used as an anesthesia. Pentobarbital was intramuscularly administered at a dose of 25 mg/kg, 10 minutes prior to the experiment, and a suitable amount thereof was additionally administered at intervals of 90 minutes to maintain anesthesia during the experiment. The concentration of enflurane was maintained at 1% (1 L/min) using an anesthesia device for small animals.
The change of the tumor blood flow (hereinafter referred to as “TBF”) was observed through a biomicroscope. The dorsal skin of the rat was held with a transparent chamber under sterile conditions, and a small fragment of tumor was implanted thereon. […]
MTPVS used in a test group was administered through the tail vein by infusion pump. […] The blood vessels of tumor in the chamber were visualized with a halogen lump of 12 V and 100 W. The images of the microscope were recorded using a CCD video camera (CS-900; manufactured by Olympus Corporation), a television monitor and an S-VHS video recorder. […]

[2] = tested on: arteriole supplying nutrients to the tumor / tumor blood flow (SLC tumor); assay: Biomicroscopic observation of the change of tumor microcirculation; assay type: in vivo, rat; settings: intravenous 10 mg/kg
Procedure: as §1, §2, §3
The change of the tumor blood flow (hereinafter referred to as “TBF”) was observed through a biomicroscope. The dorsal skin of the rat was held with a transparent chamber under sterile conditions, and a small fragment of tumor was implanted thereon. After the tumor started to grow thereto, the rat was tested as described in Jpn. J. Cancer Res. 81: 279-288, 1990, which is incorporated herein by reference. The chamber comprises two titanium flames of the same shape each having a circular quartz glass window with a thickness of 300 μm. After anesthesia, the rat with the chamber was put on a stage heated at 34.5° C. in the microscope.
MTPVS used in a test group was administered through the tail vein by infusion pump. […] and histological changes of tumor were directly observed through an optical microscope (Eclipse E800; manufactured by Nikon Corporation) with an eye lens of 10× and an object glass of 2× to 20×. The blood vessels of tumor in the chamber were visualized with a halogen lump of 12 V and 100 W. The images of the microscope were recorded using a CCD video camera (CS-900; manufactured by Olympus Corporation), a television monitor and an S-VHS video recorder.
At this time, in the blood vessel on the peripheral portion of the tumor, the plasma concentration was decreased, and large quantities of red blood cells were retained. These red blood cells were hemolyzed within 2 to 3 hours after MTPVS administration to form clog.
An inserted section on the left upper portion in FIG. 4 is an enlarged view of the blood vessels on the peripheral portion of the tumor. FIGS. 1 to 4 are based on photographs taken (length of a bar: 500 μm) by using an eye lens of 10× and an object glass of 4×. The inserted section is based on a photograph taken (length of a bar: 50 μm) by using an eye lens of 10× and an object glass of 20×.

COc1ccc(/C=C\c2cc(OC)c(OC)c(OC)c2)cc1NC(=O)[C@@H](N)CO [MTPVS, (Z)-N-[2-methoxy-5-[2-(3,4,5-trimethoxyphenyl)vinyl]phenyl]-L-serinamide hydrochloride]
time to necrosis of SLC tumor grown in the transparent chamber [1]: ≤ 25 h
restoration of tumor blood flow after clog and hemolysis [2]: no longer restored
time at which tumor blood flow stopped almost completely ([2]; after administration): 30 min
time to hemolysis of retained red blood cells in blood vessel on peripheral portion of the tumor (clog formation) ([2]; after administration): 2 to 3 hours
blood vessel structure in the normal tissues ([2]; normal tissues): maintained as normal
contraction of the arteriole supplying nutrients to the tumor ([2]; rat SLC tumor in transparent chamber): markedly contracted
